Assay results: patent US7572779B2 (priority 2001, dated 2009)

Assay: Open-label, single-dose, randomized, crossover oral bioavailability study in healthy postmenopausal women volunteers
Settings: single oral tablet
Description: The study was an open-label, single-dose, randomized, crossover, bioavailability study in nine healthy postmenopausal women volunteers.
Comparison of treatments was based on ratio of least square means from analysis of variance and ratio of individual subject parameter values, e.g. ratio=(AUCtreatment A)/(AUCtreatment B).

CC(=O)Oc1ccc2c(c1)CC[C@@H]1[C@@H]2CC[C@]2(C)[C@@H](O)CC[C@@H]12 [17β-estradiol-3-acetate]
Absorption as indicated by shape of serum estradiol concentration-time profiles: rapidly absorbed and hydrolyzed to 17β-estradiol in vivo
